Results reported in EP0233441A1, “New enzyme inhibitor” (Astra Läkemedel Aktiebolag, priority 1985, dated 1987).

Columns and labels:
[1] = biological target: CMP-KDO lipid A transferase (KLT) (Salmonella typhimurium, UniProt Q8ZL49); experiment: KLT Assay (incorporation of [14-C]-labelled CMP-KDO into acid-insoluble product; CMP-KDO generated in situ by added CKS); assay type: biochemical; conditions: percent of a control without inhibitor, read-out: Percentage of inhibition of KLT
Experimental: (§1) Potential inhibitors were tested for inhibitory action against two key enzymes involved in the biosynthesis of bacterial LPS.
CMP-KDO lipid A transferase (KLT) which transfers CMP-KDO to an intermediate in the biosynthesis of LPS known as lipid A precursor [drawing 21]
The KLT enzyme was purified essentially by the method of Osborne (J.Biol.Chem. 252 (1977) 4895-4903). KLT activity was determined by monitoring the incorporation of [14-C]-labelled CMP-KDO into acid- insoluble product. The radio labelled CMP-KDO was generated in situ from CTP and [14-C]-KDO by the action of added CKS enzyme. The incubation mixture contained CKS enzyme, KLT enzyme, 110 mM Tris buffer pH 8.0, 10.6 mM NaCl, 0.5 mM CTP, 0.4%, Alfonic 1012-6 (Trade name), 0.16 mM [14-c] KDO and lipid A precursor. The final reaction volume was 150 µl. The mixture was incubated at 25°C for 15 min., when 50 µl was transferred to a filter paper circle (Munktell No. 5,24 mm.) and then washed copiously with 10% TCA. The radioactivity adsorbed on the paper circle, which represents radiolabelled KDO bound to precursor was determined using liquid scintillation counting.
(§2) Inhibition of CKS and KLT enzymes by compound I is given in Table I. The inhibitory action is expressed in percent of a control without inhibitor run simultaneously.

CMP-KDO synthetase (CKS) = biological target: T1, CMP-KDO synthetase (CKS) (Escherichia coli, UniProt P04951); experiment: CKS Assay (enzyme inhibition); assay type: biochemical; conditions: percent of a control without inhibitor, read-out: Percentage of inhibition of CKS
T1 construct: made in house
T1 sequence (P04951 whole entry): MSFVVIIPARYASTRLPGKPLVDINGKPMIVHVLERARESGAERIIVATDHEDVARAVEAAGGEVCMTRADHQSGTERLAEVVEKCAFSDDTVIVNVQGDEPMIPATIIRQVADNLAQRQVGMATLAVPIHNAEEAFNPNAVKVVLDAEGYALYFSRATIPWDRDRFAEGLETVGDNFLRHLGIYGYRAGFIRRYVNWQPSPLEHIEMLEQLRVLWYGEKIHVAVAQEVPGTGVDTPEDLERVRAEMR
Experimental: as §1
I. CMP-KDO synthetase (CKS) which catalyses the reaction [drawing 20]
The CKS enzyme was prepared essentially as described by Osborne [J-.Biol.Chem. […]] and the enzyme assayed by the method of Ghalambor and Heath (J.Biol.Chem. 241 (1966) 3216-3221).
as §2

CMP-KDO lipid A transferase (KLT), sequence (Q8ZL49 entry or part of it): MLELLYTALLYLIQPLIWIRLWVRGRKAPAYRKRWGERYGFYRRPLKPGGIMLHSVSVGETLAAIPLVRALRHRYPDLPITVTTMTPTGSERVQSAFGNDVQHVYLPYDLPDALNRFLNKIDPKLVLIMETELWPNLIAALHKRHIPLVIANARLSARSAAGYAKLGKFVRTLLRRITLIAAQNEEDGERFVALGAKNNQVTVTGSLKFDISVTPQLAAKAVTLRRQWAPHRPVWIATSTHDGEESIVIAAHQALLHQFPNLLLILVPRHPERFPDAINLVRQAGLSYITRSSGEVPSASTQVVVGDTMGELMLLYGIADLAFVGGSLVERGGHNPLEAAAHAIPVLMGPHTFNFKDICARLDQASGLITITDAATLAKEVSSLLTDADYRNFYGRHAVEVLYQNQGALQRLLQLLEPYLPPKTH

`O=C(O)[C@@H]1C[C@@H](O)[C@@H](O)[C@@H]([C@H](O)CO)O1` [compound I, ammonium 2,6-anhydro-3-deoxy-D- -glycero-D -talo-octonate] showed an inhibition at 0.625 µM ([1]; 0.000625 mM compound) of 5%, an inhibition at 2.5 µM ([1]; 0.0025 mM compound) of 24% and an inhibition at 10 µM ([1]; 0.01 mM compound) of 57%. It also gave an inhibition at 40 µM ([1]; 0.04 mM compound) of 81%, an inhibition at 160 µM ([1]; 0.16 mM compound) of 89% and an inhibition at 640 µM ([1]; 0.64 mM compound) of 98%. For the same compound, the inhibition at 2.5 µM (CMP-KDO synthetase (CKS); 0.0025 mM compound) was 8%, the inhibition at 10 µM (CMP-KDO synthetase (CKS); 0.01 mM compound) was 36% and the inhibition at 40 µM (CMP-KDO synthetase (CKS); 0.04 mM compound) was 68%. It also gave an inhibition at 160 µM (CMP-KDO synthetase (CKS); 0.16 mM compound) of 90%, an inhibition at 640 µM (CMP-KDO synthetase (CKS); 0.64 mM compound) of 98% and an inhibition at 2540 µM (CMP-KDO synthetase (CKS); 2.54 mM compound) of 99%. For the same compound, the inhibition at 10160 µM (CMP-KDO synthetase (CKS); 10.16 mM compound) was 98%.
